This is an account of results in ChEMBL document CHEMBL5365455, “Design, synthesis and anticancer activity of N-aryl indolylsulfoximines: Identification of potent and selective anticancer agents” (Bioorg Med Chem, 2023).

One series has as its system MCF7. Kind of series: Anticancer activity against human MCF7 cells assessed as cell growth inhibition measured after 48 hrs by MTT assay. Particulars: MCF7, 48 h. Type of series: functional, cell-based. On the technique in general: Tetrazolium assays rely on reduction of a dye to a coloured formazan, in cell work by metabolically active cells.
Series [1] is described as follows: (§1) Cytotoxicity against HEK293 cells assessed as cell growth inhibition measured after 48 hrs by MTT assay. Type of series: toxicity, cell-based, Homo sapiens. Particulars: human, HEK293 cells.
A further series deals with CWR22R. The series can be described thus: Anticancer activity against human 22Rv1 cells assessed as cell growth inhibition measured after 48 hrs by MTT assay. Type of series: functional, cell-based. Conditions: 22Rv1, 48 h.
Series [2] has as its system LNCaP C4-2. The series can be described thus: Anticancer activity against human LNCaP C4-2 cells assessed as cell growth inhibition measured after 48 hrs by MTT assay. Format: functional, cell-based. Particulars: LNCaP C4-2, 48 h.
Another series deals with PC-3. Kind of series: Anticancer activity against human PC-3 cells assessed as cell growth inhibition measured after 48 hrs by MTT assay. Type of series: functional, cell-based. Particulars: PC-3, 48 h.
A further series relates to HEK293. The series is described as §1. Format: toxicity, cell-based, Homo sapiens. Particulars: hek293.
In series [3] the target is T1, Tubulin (Homo sapiens) (UniProt P68371+Q9H4B7+P0DPH7+P68366+Q13509+Q71U36+P04350+Q3ZCM7+P07437+P68363+Q9BQE3+Q6PEY2+Q13885+Q9BVA1+Q9BUF5). Kind of series: Induction of tubulin depolymerization in human 22Rv1 cells assessed as decrease in polymerized tubulin level at 20 uM measured after 24 hrs by Bradford assay relative to control. Also noted: scale not given: the % may be the effect or the level left. Format: cell-based.

Series [4] concerns LNCaP C4-2. Kind of series: Induction of apoptosis in human LNCaP C4-2 cells assessed as increase in c-Jun level at 10 uM measured after 48 hrs by Western blot analysis. Type of series: functional, cell-based. On the technique in general: Immunoblotting shows a protein as a band on a membrane.
Series [5] concerns LNCaP C4-2. Kind of series: Induction of apoptosis in human LNCaP C4-2 cells assessed as increase in p53 level at 10 uM measured after 48 hrs by Western blot analysis. Format: functional, cell-based.
In series [6] the test system is LNCaP C4-2. Kind of series: Induction of cell death in human LNCaP C4-2 cells assessed as red fluorescence at 10 uM incubated for 48 hrs by ethidium bromide/acridine orange staining based fluorescent microscopic analysis. Type of series: functional.
For series [7], the system named is LNCaP C4-2. Kind of series: Induction of ROS accumulation in human LNCaP C4-2 cells at 10 uM measured after 48 hrs by H2DCFDA dye based inverted fluorescent microscopic analysis. Type of series: functional, cell-based.
The test system of series [8] is Cell membrane. Kind of series: Induction of mitochondrial membrane depolarization in human LNCaP C4-2 cells at 10 uM measured after 48 hrs by JC-1 staining based fluorescence microscopic analysis. Type of series: subcellular.
The subject of series [9] is LNCaP C4-2. The series can be described thus: Inhibition of cell migration in human LNCaP C4-2 cells assessed as reduction in cell motility at 10 uM incubated for 12 to 24 hrs by inverted microscopy based scratch wound healing assay. Type of series: functional. Particulars: time 12-24 hrs.
Series [10] relates to LNCaP C4-2. Kind of series: Inhibition of colony formation in human LNCaP C4-2 cells assessed as decrease in colony number at 10 uM measured after 10 days by crystal violet staining based assay. Format: functional, cell-based. Particulars: time 10.0 day.
Series [11] has as its system LNCaP C4-2. The series can be described thus: Induction of cytokinesis defect in human LNCaP C4-2 cells at 10 uM measured after 48 hrs by DAPI staining based fluorescence imaging analysis. Format: functional, cell-based.
The target of series [12] is T1, Tubulin (Homo sapiens). Kind of series: Induction of tubulin depolymerization in human LNCaP C4-2 cells assessed as shrinkage of tubulin at 10 uM measured after 48 hrs by fluorescence microscopic analysis. Type of series: cell-based.
Series [13] concerns the target T1, Tubulin (Homo sapiens). The series can be described thus: Induction of tubulin depolymerization in human LNCaP C4-2 cells assessed as tubulin condensation towards nucleus at 10 uM measured after 48 hrs by fluorescence microscopic analysis. Type of series: cell-based.
In series [14] the test system is Cell membrane. Kind of series: Induction of mitochondrial membrane depolarization in human LNCaP C4-2 cells at 1 ug/ml measured after 48 hrs by JC-1 staining based fluorescence microscopic analysis. Format: subcellular. Conditions: dose 1.0 µg/ml.

Calls of active or inactive are those of the source. The calls are words filed in the database; no cut-off is given here.

As usually defined, the IC50 is the concentration that gives 50% inhibition. As to `COc1ccc(N=S(C)(=O)c2c[nH]c3ccc(Br)cc23)cc1` (configuration not stated), in the series on MCF7, the IC50 is 1.28 µM. Besides, the IC50 at 48 h in series [1] was above 40 µM.
With `COc1cc(N=S(C)(=O)c2c[nH]c3ccccc23)cc(OC)c1OC` (configuration not stated), the IC50 in the series with CWR22R is above 40 µM; in the series with LNCaP C4-2 [2], 10 µM; with PC-3, 21.7 µM; in the series with MCF7, 40 µM; in the series with HEK293, above 40 µM.
`COc1cc(N=S(C)(=O)c2cn(Cc3ccc(Cl)cc3)c3ccccc23)cc(OC)c1OC` (configuration not stated): the IC50 in the series on CWR22R was above 40 µM; with LNCaP C4-2 [2], 40 µM; in the series on PC-3, above 40 µM; in the series with HEK293 it was above 40 µM.
In the case of `CS(=O)(=Nc1ccc(F)cc1)c1c[nH]c2ccccc12` (configuration not stated), the IC50 in the series with CWR22R is 40 µM; in the series with LNCaP C4-2 [2] it was 3.7 µM; in the series with PC-3 it was above 40 µM; with MCF7, 40 µM; in the series with HEK293 it was above 40 µM.
For `COc1ccc2[nH]cc(S(C)(=O)=Nc3cc(OC)c(OC)c(OC)c3)c2c1` (configuration not stated), the IC50 with CWR22R was 2.68 µM; with LNCaP C4-2 [2], above 40 µM; with PC-3 it was above 40 µM; in the series with MCF7, 38.8 µM; in the series on HEK293, above 40 µM.
Consider `COc1ccc(N=S(C)(=O)c2c[nH]c3ccccc23)cc1` (configuration not stated), for which the IC50 in the series with CWR22R was 3.31 µM; in the series with LNCaP C4-2 [2] it was 1.95 µM; in the series on PC-3, 17.1 µM; in the series on MCF7 it was above 40 µM; with HEK293, above 40 µM.
For the compound `COc1ccc(N=S(C)(=O)c2c[nH]c3ccc(OC)cc23)cc1` (configuration not stated), the IC50 with CWR22R was 2.76 µM; with LNCaP C4-2 [2] it was 40 µM; with PC-3, 12.2 µM; in the series with MCF7 it was above 40 µM; with HEK293 it was above 40 µM.
As for `CS(=O)(=Nc1cccc(C(F)(F)F)c1)c1c[nH]c2ccccc12` (configuration not stated), the IC50 in the series with CWR22R is above 40 µM; in the series on LNCaP C4-2 [2] it was 2.18 µM; in the series on MCF7, 2 µM. In [1], the IC50 at 48 h is 40 µM.
In the case of `COc1ccc(N=S(C)(=O)c2c[nH]c3cc(F)ccc23)cc1` (configuration not stated), the Activity at Tubulin (Homo sapiens) [3] came to 13%. Besides, the result in the series with LNCaP C4-2 [4], in the series with LNCaP C4-2 [5], with LNCaP C4-2 [6], in the series with LNCaP C4-2 [7], with Cell membrane [8] and with LNCaP C4-2 [11] was Active. For the same compound, the result on Tubulin (Homo sapiens) [12] and at Tubulin (Homo sapiens) [13] was Active. Moreover, the IC50 was 1.91 µM with CWR22R, 8.2 µM in the series with LNCaP C4-2 [2], 3.51 µM in the series on PC-3 and 1.7 µM in the series with MCF7. Besides, in series [1], the IC50 at 48 h was above 40 µM. Besides, the inhibition entry in the series with LNCaP C4-2 [9] and with LNCaP C4-2 [10] was “Active” each time.
For `CS(=O)(=Nc1ccc(Br)cc1)c1c[nH]c2ccccc12` (configuration not stated), the IC50 in the series with CWR22R is above 40 µM; with LNCaP C4-2 [2], above 40 µM; with PC-3 it was 11.1 µM; in the series with MCF7 it was above 40 µM; in the series with HEK293, above 40 µM.
Regarding `CS(=O)(=Nc1ccccc1)c1c[nH]c2ccccc12` (configuration not stated), the IC50 was above 40 µM in the series with CWR22R; 8.9 µM in the series on LNCaP C4-2 [2]; above 40 µM in the series on PC-3; 10 µM in the series with MCF7; above 40 µM in the series with HEK293.
Turning to `COc1ccc(C[C@H](N)C(=O)N[C@H]2[C@@H](O)[C@H](n3cnc4c(N(C)C)ncnc43)O[C@@H]2CO)cc1`, the outcome in the series with Cell membrane [14] was Active.
As to `Cc1ccc(N=S(C)(=O)c2c[nH]c3ccccc23)cc1` (configuration not stated), the IC50 in the series with CWR22R is above 40 µM; in the series on LNCaP C4-2 [2] it was 2.3 µM; with PC-3, above 40 µM; in the series on MCF7, 1.6 µM. Besides, in [1], the IC50 at 48 h was determined as 40 µM.
For the compound `CS(=O)(=Nc1ccc(F)c(F)c1)c1c[nH]c2ccccc12` (configuration not stated), the IC50 in the series with CWR22R was 40 µM; with LNCaP C4-2 [2] it was 1.9 µM; in the series with PC-3, 14.4 µM; in the series on MCF7, above 40 µM; in the series on HEK293 it was above 40 µM.
